# Values of other authors as cited in patent US20110207819A1, “Fat Emulsion for Artificially Feeding Seriously Ill Intensive Care Patients” (B. BRAUN MELSUNGEN AG, priority 2008, published 2011).
# Test system: CIP/CIM
# Conditions: intensified insulin therapy; intensive care patients
substance,measurement,value
insulin,decrease of the incidence of CIP/CIM,44%
